Measurements reported in patent US7314867B2, “Pharmaceutical composition comprising a retro-iverso isomer peptide” (priority 2002, dated 2008).
Entries after “also recorded” stand apart in the source; their conditions may differ.

Tested on: serum triglyceride levels in male ICR mice
Experiment: Oral administration of peptides to determine inhibition of serum triglyceride level elevation after olive oil feeding
Type: in vivo
Conditions: for Serum Triglyceride: male ICR mice fasted overnight, olive oil 250 mg by gastric intubation, peptide 1.0 mg/mouse orally one hour after lipid, blood collected after two hours; for % Decrease (serum triglyceride) / Activity in lowering elevated serum triglyceride levels compared with the corresponding natural reference peptide: male ICR mice, peptide 1.0 mg/mouse orally; for % Decrease (serum triglyceride): olive oil 250 mg, versus Olive Oil Only; for Activity in lowering elevated serum triglyceride levels compared with the corresponding natural reference peptide: olive oil load, comparison in words
Method: Olive oil (250 mg) was administered via gastric intubation to male ICR mice (6-week old, body weight: 20 g), which were fasted overnight. The peptides were dissolved in 0.1 ml saline solution and administered orally one hour after lipid administration. For the control group, 0.1 ml of saline solution was administered per mouse. After two hours, blood was collected from the orbital vein under ether anesthesia and the serum was separated by centrifugation (3000 rpm, 30 min, 1° C.). Serum triglyceride levels were assayed using commercially available methods (e.g. INFINITY (Registered Trade Mark) triglycerides reagent; Sigma Chemical Co.). The results were compared with L-Val-L-Val-L-Tyr-L-Pro (Reference Peptide 1), L-Val-L-Tyr-L-Pro (Reference Peptide 2), and L-Val-L-Thr-L-Leu (Reference Peptide 3) and shown in Table 1.

Row | Substance | Serum Triglyceride [mg/100 ml] | % Decrease (serum triglyceride) [%] | Activity in lowering elevated serum triglyceride levels compared with the corresponding natural reference peptide | Activity in lowering elevated serum triglyceride levels compared with the corresponding natural reference peptide (listed as D-Leu D-Thr D-Val)
1 | D-Leu D-Thr D-Val C-NH2 [Retro Inverso Polypeptide 3] | 294.6 ± 33.8 | 28.7 | higher activities in lowering elevated serum triglyceride levels than Reference 2 and 3, respectively | substantially exceed the activity of the corresponding natural oligopeptide
2 | D-Pro D-Tyr D-Val C-NH2 [Retro Inverso Polypeptide 2] | 231.8 ± 27.6 | 50.8 | substantially exceed the activity of the corresponding natural oligopeptide | 
3 | D-Pro D-Tyr D-Val D-Val C-NH2 [Retro Inverso Polypeptide 1] | 313.7 ± 45.9 | 22.0 | higher activities in lowering elevated serum triglyceride levels than Reference 2 and 3, respectively; also recorded: about half of Reference Peptide 1 | 
4 | L-Val-L-Thr-L-Leu [Ref. Peptide 3, reference compound] | 352.7 ± 35.6 | 8.3 |  | 
5 | L-Val-L-Tyr-L-Pro [Ref. Peptide 2, reference compound] | 407.7 ± 42.0 | 0 |  | 
6 | L-Val-L-Val-L-Tyr-L-Pro [Ref. Peptide 1, reference compound] | 244.7 ± 25.5 | 46.3 |  | 
